With `CN[C@@H]1CCc2c(c3cc(S(=O)(=O)c4ccccc4)ccc3n2C)C1.Cl`, the melting point was above 275 °C.

For the origin of these results see patent publication US6727274B2, “Arylsulphonyl substituted-tetrahydro- and hexahydro-carbazoles” (Pharmacia & Upjohn Company, priority 2001, dated 2004).
